US6835382B2, “Ii peptide therapeutics to enhance antigen presentation” (University of Massachusetts, priority 1996, dated 2004)

What was measured:
[1] = tested on: murine E^k MHC class II allele; assay: simultaneous assay, E^k allele (CH27 APC, TPc9.1 T hybridoma, THMCC82-103 or PGCC81-104); assay type: cell-based; conditions: AE peptide 64 μM, supernatant 1:4; for Times Baseline Response, Ek: Table 3, values reduced relative to E^d by a factor of 10
Protocol: (§1) Examples 1-4 (Tables 1-18) will be briefly considered in order to establish the concept of tolerance discussed above. These examples describe experimental results observed in the so-called “simultaneous” assay. In the simultaneous assay four principle components are cultured together for a 24 hour period. The components of this culture, which are added simultaneously, are: (a) an antigenic peptide characterized by the ability to bind specifically into the antigenic peptide binding groove of an MHC class II molecule, (b) mitomycin C-treated, MHC class II-positive antigen presenting cells (APC) bearing the MHC class II allele required for binding of the specific antigenic peptide, and presentation of the specific antigenic peptide to the antigenic peptide-specific T cell hybridoma, (c) an effector compound of the present invention, and (d) an MHC class II allele-restricted T cell hybridoma specific for the antigenic peptide and the MHC class II allele restricting its presentation. Following incubation of this primary culture, an aliquot of its supernatant is transferred into a second culture well for incubation with an interleukin-dependent lymphoblastoid cell line. The degree of stimulation of that second, indicator cell by the interleukins which had been released from the activated T cell hybridoma in the primary culture is measured by quantitating tritiated thymidine deoxyribose {[^3H]TdR} uptake into the DNA of the HT-2 indicator cells of that second culture.
(§2) In the “simultaneous assay” the four components of the assay are cultured together for a 24 h period. The components of this primary culture, added at the same time or simultaneously, are: (a) the antigenic peptide, (b) mitomycin C-treated, MHC class II-positive antigen presenting cells (APC) with the MHC class II allele required for binding of the specific antigenic peptide and its presentation to the antigenic peptide-specific T cell hybridoma, (c) an AE101 series effector peptide, and (d) MHC class II allele-restricted T cell hybridoma specific for the antigenic peptide and the MHC class II allele restricting its presentation. At the end of the incubation of this primary culture, an aliquot of its supernatant is transferred into a second culture well for incubation with an interleukin-dependent lymphoblastoid cell line. The degree of stimulation of that second, indicator cell by the interleukins which had been released from the activated T cell hybridoma in the primary culture is measured by quantitating tritiated thymidine deoxyribose {[^3H]TdR} uptake into the DNA of the HT-2 indicator cells of that second culture.
(§3) For these various assays, the following antigenic peptides were used: HEL11-25, hen egg lysozyme 11-25, AMKRHGLDNYRGYSL(A^d) (SEQ ID NO:5); HEL46-61, hen egg lysozyme 46-61, NTDGSTDYGILQINSR(Ak) (SEQ ID NO:6); HEL106-116, hen egg lysozyme 106-116, NAWVAWRNRCK (E^d) (SEQ ID NO:7); PGCC81-104, pigeon cytochrome c 81-104, […] (Ek) (SEQ ID NO:8), and THMCC82-103, tobacco hornworm moth cytochrome c 82-103, […] (Ek) (SEQ ID NO:9). AE101 series peptides were obtained from commercial sources. In general, the purity and composition of each peptide was confirmed by HPLC separation and mass spectrometry. The native protein antigens were HEL, hen egg lysozyme, and PGCC, pigeon cytochrome C. They were obtained from commercial sources.
(§4) For the experiments of these Examples, several T cell hybridomas, which are specific for certain antigenic peptides, were used. The TPc9.1 T hybridoma is specific for pigeon cytochrome C 81-104 peptide presented on the murine class II MHC allele E^k. The TPc9.1 hybridoma responds heteroclitically to tobacco hornworm moth cytochrome c 82-103 on E^k. The 3A9 T hybridoma is specific for hen egg lysozyme 46-61 on A^k. The 9.30.B2 hybridoma is specific for hen egg lysozyme 11-25 on A^d, and the G28.C9 hybridoma is specific for hen egg lysozyme 106-116 on E^d. […]

[2] = molecular target: T1, murine E^d MHC class II allele (Mus musculus, UniProt P01904+P01915); assay: simultaneous assay, E^d allele (A20 APC, G28.C9 T hybridoma, HEL106-116; HT-2 [3H]TdR readout); assay type: cell-based; parameters: The A20 and CH27 B cell lymphoma lines express H-2^d and H-2^k alleles, respectively; endogenous in cells; host or cells: A20 B cell lymphoma (mitomycin C-treated or paraformaldehyde-fixed); conditions: AE peptide 64 μM, supernatant 1:4; for Times Baseline Response, Ed: Table 3
T1 sequence (P01904 26-255): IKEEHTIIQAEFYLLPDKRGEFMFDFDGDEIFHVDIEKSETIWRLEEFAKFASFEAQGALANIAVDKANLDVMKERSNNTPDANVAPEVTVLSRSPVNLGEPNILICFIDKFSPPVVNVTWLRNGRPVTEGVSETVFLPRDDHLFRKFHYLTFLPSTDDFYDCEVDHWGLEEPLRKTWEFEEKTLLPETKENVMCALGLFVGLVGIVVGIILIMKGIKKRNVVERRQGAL
T1 sequence (P01915 27-264 limits assumed): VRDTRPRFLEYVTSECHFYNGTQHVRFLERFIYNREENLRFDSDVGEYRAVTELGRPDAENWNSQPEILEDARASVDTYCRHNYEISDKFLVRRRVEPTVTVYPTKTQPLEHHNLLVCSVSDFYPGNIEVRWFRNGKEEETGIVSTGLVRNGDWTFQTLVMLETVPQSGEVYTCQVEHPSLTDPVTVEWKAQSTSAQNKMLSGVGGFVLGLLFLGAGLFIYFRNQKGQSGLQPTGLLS
Protocol: as §1, §2, §3, §4

[3] = Table 5, normalized to E^d by a factor of 10
[4] = Table 6, reduced by a factor of 5

Substance | Times Baseline Response, E^k [1, 3] | Times Baseline Response, E^d ([2]; Table 5) | Times Baseline Response, E^k [1, 4] | Times Baseline Response, E^d ([2]; Table 6) | other results
Ac-D RMKLPK-NH2 [AE185] | – | – | – | – | Times Baseline Response, Ek [1]: 0.9; Times Baseline Response, Ed [2]: 1.2
Ac-E RMKLPK-NH2 [AE186] | – | – | – | – | Times Baseline Response, Ek [1]: 1.3; Times Baseline Response, Ed [2]: 2.5
Ac-F RMKLPK-NH2 [AE189] | – | – | – | – | Times Baseline Response, Ek [1]: 18.2; Times Baseline Response, Ed [2]: 12.1
Ac-H RMKLPK-NH2 [AE183] | – | – | – | – | Times Baseline Response, Ek [1]: 17.3; Times Baseline Response, Ed [2]: 10.3
Ac-HArg RMKLPK-NH2 [AE182] | – | – | – | – | Times Baseline Response, Ek [1]: 26.5; Times Baseline Response, Ed [2]: 18.8
Ac-K RMKLPK-NH2 [AE184] | – | – | – | – | Times Baseline Response, Ek [1]: 11.8; Times Baseline Response, Ed [2]: 14.1
Ac-LR D KLPK-NH2 [AE200] | 3.9 | 8.3 | – | – | –
Ac-LR E KLPK-NH2 [AE201] | 3.4 | 7.0 | – | – | –
Ac-LR F KLPK-NH2 [AE204] | 31.8 | 14.0 | – | – | –
Ac-LR H KLPK-NH2 [AE198] | 18.7 | 16.1 | – | – | –
Ac-LR K KLPK-NH2 [AE199] | 22.9 | 12.1 | – | – | –
Ac-LR Q KLPK-NH2 [AE203] | 20.5 | 14.1 | – | – | –
Ac-LR Y KLPK-NH2 [AE205] | 27.4 | 13.9 | – | – | –
Ac-LRM D LPK-NH2 [AE214] | – | – | 0.4 | 0.8 | –
Ac-LRM E LPK-NH2 [AE215] | – | – | 0.4 | 0.7 | –
Ac-LRM F LPK-NH2 [AE218] | – | – | 9.0 | 3.1 | –
Ac-LRM H LPK-NH2 [AE213] | – | – | 5.7 | 6.1 | –
Ac-LRM HArg LPK-NH2 [AE212] | – | – | 15.4 | 13.2 | –
Ac-LRM N LPK-NH2 [AE216] | – | – | 3.3 | 2.4 | –
Ac-LRM Q LPK-NH2 [AE217] | – | – | 4.4 | 4.0 | –
Ac-LRM Y LPK-NH2 [AE219] | – | – | 8.8 | 7.1 | –
